# Experimental data taken from patent US7820624B2, “Peptide ligands” (ICH Productions Limited, priority 2003, dated 2010).
# Columns and labels:
# [1] = test system: human monocyte-derived immature dendritic cells; test: Titration of phage clone binding to human dendritic cells; settings: 2×10^11 phage on 5×10^4 cells, 1 hour on ice
# Protocol: Phage were recovered and titred from each round of selection as follows. 2×10^11 Blocked phage were added to 5×10^4 blocked monocyte-derived immature dendritic cells for 1 hour on ice before washing cells three times with 0.05% Tween20-PBS, eluting phage with TBS pH5.5, and lysing cells to harvest the phage remaining bound. The numbers of phage harvested by cell lysis were calculated as plaque forming units (pfu). […] Sequencing of the bound phage shown in FIG. 1 identified the peptides as APSNSTA [SEQ. ID. NO.:15], QLLTGAS [SEQ. ID. NO.:30], TARDYRL [SEQ. ID. NO.:31], FQSQYQK [SEQ. ID. NO.:26], PLMPSLS [SEQ. ID. NO.:24], FPRAPHH [SEQ. ID. NO.:32], MASISMK [SEQ. ID. NO.:27], DWWHTSA [SEQ. ID. NO.:28], SHVKLNS [SEQ. ID. NO.:29], and SPALKTV [SEQ. ID. NO.:16].
# (§1) The dendritic cells were spun down at 2000 rpm, for 5 min at 4° C., and resuspended in the phage solution, allowing the phage to bind for 1 hour on ice with occasional mixing. The cells were then washed in PBS-Tween 20 (0.05%) three times before eluting phage with 166 μl TBS pH5.5. for 10 min on ice. The eluate was neutralised with […] Tris-HCl pH 8, the cells were spun down, and the supernatant removed to be stored as eluate. The cell pellet was resuspended in 200 μl of cell lysis buffer (30 mM Tris-HCl, 1 mM EDTA pH 8.0) for 1 hour on ice, with shaking. The cell debris was removed by spinning at 5000 rpm for 5 min and the supernatant recovered. The phage in the eluate and the cell lysate were titred by measuring plaque forming units (pfu) in E. coli ER2738 as described in the NEB C7C technical bulletin.
# (§2) The titration of phage clone binding was carried out using human and mouse dendritic cells, with binding to plastic as a control. The human cells were obtained from donors as stated below.
# mouse dendritic cells = test: Titration of phage clone binding to mouse dendritic cells; settings: 2×10^11 phage
# Protocol: as §1, §2
# [2] = Titration of phage clone binding to blocked plastic (control)
# Protocol: as §1, §2
# [3] = test system: human peripheral blood monocytes; test: LID transfection of monocytes, EGFP by FACS and cell death; assay type: cell-based; settings: for Percentages of cells transfected (ranking): FIG. 7a
# Protocol: Lipopolyplex (LID) transfection complexes comprising lipid (L), peptide (in the form of a peptide derivative as described above) (I) and DNA (D) were prepared. The lipid component was Lipofectin or Lipofectamine 2000 (Invitrogen Ltd, Paisley, UK), the peptide component was a synthesized peptide A to F, 6 or 6J derivative, as described in Table 7 above, and the DNA was the plasmid pEGFP-N1 (Clontech, BD Biosciences, Palo Alto, Calif.)
# component (Lipofectin or Lipofectamine 2000) was maintained at a constant proportion, by weight, relative to DNA of 0.75:1. Prior to making transfection complexes, in method A the lipid component was diluted to a concentration of 15 μg per ml, the peptide was prepared at 0.1 mg/ml and the DNA (plasmid pEGFP-N1, BD Biosciences, Cowley, UK, prepared using EndoFree plasmid kit, Qiagen Ltd, Crawley, UK) was at 10 μg per ml. All dilutions were performed with OptiMEM reduced serum tissue culture medium (Life Technologies Ltd, Paisley, UK). In method B prior to making transfection complexes the lipid component was diluted to a concentration of 30 μg per ml, the peptide was prepared at 0.1 mg/ml and the DNA (plasmid pEGFP-N1, BD Biosciences, Cowley, UK, prepared using EndoFree plasmid kit, Qiagen Ltd, Crawley, UK) was at […]. All dilutions were performed in serum-free RPMI.
# Transfection complexes were made by mixing the components in the order 1) lipid (50 μl) then 2) peptide (70 μl) and finally 3) DNA (50 μl), then diluting with OptiMEM or serum free RPMI, as appropriate, to a concentration relative to the DNA component of 2 μg DNA per […] (OptiMEM) or 500 μl (RPMI).
# For transfection of monocytes, peripheral blood monocytes were prepared using Lymphoprep centrifugation and CD14 bead selection as described in the method for preparation of monocyte derived dendritic cells in Example 1(v) above. These cells were then transfected as described as described for dendritic cells except that transfection of the monocytes (and also of day 3 or day 4 immature dendritic cells) was carried out in solution.
# HMEC-1 cells = test: LID transfection, luciferase reporter assay, HMEC-1; assay type: cell-based, human; settings: LID with lipofectin
# Protocol: (§3) Transfection complexes comprising lipid, peptide and DNA were prepared. The lipid component was lipofectin (Invitrogen Ltd, Paisley, UK), the peptide component was a peptide A to F, 6 or 6J derivative, as described above, and the DNA was the plasmid pCILuc (Promega UK Ltd, Southampton). In the transfection complex, peptide to DNA charge ratios (+/−) were used at 3:1, 5:1 and 7:1. The lipid component was maintained at a constant proportion, by weight, relative to DNA of 0.75:1. Prior to making transfection complexes the lipid component was diluted to a concentration of 15 μg or 30 μg per ml, the peptide was prepared at 0.1 mg/ml and the DNA was at 40 μg per ml. All dilutions were performed with OptiMEM reduced serum tissue culture medium (Life Technologies). Transfection complexes were made by mixing of components in the order 1) lipid then 2) peptide and finally 3) DNA, then diluted with OptiMEM to a concentration relative to the DNA component of 0.25 μg DNA per […]
# (§4) For transfection of these types of cell i.e. HMEC, HAEo-, N2a and HepG2, 1×10^4 cells were seeded overnight in 96 well plate. 200 μl of the suspension of the transfection complex prepared according to (b) above was added to each well. The suspension was applied to cells within 5 minutes of preparation. […]
# HAEo- cells = test: LID transfection, luciferase reporter assay, HAEo-; assay type: cell-based, human; settings: LID with lipofectin
# Protocol: as §3, §4
substance,measurement,setting,value
APSNSTA (Synthetic peptide binding to dendritic cells),"Phage harvested by cell lysis (pfu), human donor S",[1],6480 pfu ×10^3
same,"Phage harvested by cell lysis (pfu), human donor one",[1],1920 pfu ×10^3
same,"Phage harvested by cell lysis (pfu), human donor two",[1],460 pfu ×10^3
same,"Phage titre (pfu), mouse DCs",mouse dendritic cells,480 pfu ×10^3
same,"Phage titre (pfu), plastic",[2],480 pfu ×10^3
same,Percentages of cells transfected (ranking),[3],highest percentages of cells transfected
same,Transfection efficiency (luciferase activity per mg protein) relative to peptide 6,HMEC-1 cells,one and a half times that of peptide 6
same,Transfection efficiency (luciferase activity per mg protein) relative to peptide 6,HAEo- cells,one and a half times that using peptide 6
SHVKLNS (Synthetic peptide binding to dendritic cells),"Phage harvested by cell lysis (pfu), human donor S",[1],7280 pfu ×10^3
same,"Phage harvested by cell lysis (pfu), human donor one",[1],2620 pfu ×10^3
same,"Phage harvested by cell lysis (pfu), human donor two",[1],1160 pfu ×10^3
same,"Phage titre (pfu), mouse DCs",mouse dendritic cells,2120 pfu ×10^3
same,"Phage titre (pfu), plastic",[2],720 pfu ×10^3
same,Percentages of cells transfected (ranking),[3],highest percentages of cells transfected
same,Percent positive for EGFP,[3]; combined with Lipofectin,6%
same,Transfection efficiency (luciferase activity per mg protein) relative to peptide 6,HMEC-1 cells,approximately equal to that seen with peptide 6
same,Transfection efficiency (luciferase activity per mg protein) relative to peptide 6,HAEo- cells,approximately double that seen with peptide 6
